Results published in patent publication US8993586B2, “N1/N2-lactam acetyl-CoA carboxylase inhibitors” (Pfizer Inc., priority 2010, dated 2015).

What was measured:
[1] = molecular target: recombinant human ACC2 (rhACC2) (Homo sapiens (Human), UniProt O00763); test: recombinant hACC2 Transcreener ADP detection FP assay; assay type: biochemical; settings: 50 uM ATP, 50 min at 25° C.
Protocol: (§1) For example direct inhibition of ACC activity, for the compound of Formula (I) was determined using preparations of recombinant human ACC1 (rhACC1) and recombinant human ACC2 (rhACC2).
[3] Preparation of rhACC2. Human ACC2 inhibition was measured using purified recombinant human ACC2 (hrACC2). Briefly, a full length Cytomax clone of ACC2 was purchased from Cambridge Bioscience Limited and was sequenced and subcloned into PCDNA5 FRT TO-TOPO (Invitrogen, Carlsbad, Calif.). The ACC2 was expressed in CHO cells by tetracycline induction and harvested in 5 liters of DMEM/F12 with glutamine, biotin, hygromycin and blasticidin with 1 μg/mL tetracycline (Invitrogen, Carlsbad, Calif.). The conditioned medium containing ACC2 was then applied to a Softlink Soft Release Avidin column (Promega, Madison, Wis.) and eluted with 5 mM biotin. […] The purified ACC2 was dialyzed in 50 mM Tris, 200 mM NaCl, 4 mM DTT, 2 mM EDTA, and 5% glycerol. […] For measurement of ACC2 activity and assessment of ACC2 inhibition, test compounds were dissolved in DMSO and added to the rhACC2 enzyme as a 5× stock with a final DMSO concentration of 1%.
[4] Measurement of human ACC2 inhibition. hACC2 was assayed in a Costar #3676 (Costar, Cambridge, Mass.) 384-well plate using the Transcreener ADP detection FP assay kit (Bellbrook Labs, Madison, Wis.) using the manufacturer's recommended conditions for a 50 uM ATP reaction. The final conditions for the assay were 50 mM HEPES, pH 7.2, 5 mM MgCl2, 5 mM tripotassium citrate, 2 mM DTT, 0.1 mg/mL BSA, 30 μM acetyl-CoA, 50 μM ATP, and 8 mM KHCO3 Typically, a 10 μl reaction was run for 50 min at 25° C., and 10 μl of Transcreener stop and detect buffer was added and the combination incubated at room temp for an additional 1 hour. The data was acquired on an Envision Fluorescence reader (PerkinElmer) using a 620 excitation Cy5 FP general dual mirror, 620 excitation Cy5 FP filter, 688 emission (S) and a 688 (P) emission filter.

[2] = molecular target: recombinant human ACC1 (rhACC1) (Homo sapiens (Human), UniProt Q13085); test: recombinant hACC1 Transcreener ADP detection FP assay; assay type: biochemical; settings: 50 μM ATP, 120 min at 25° C.
Protocol: as §1
[1] Preparation of rhACC1. Two liters of SF9 cells, infected with recombinant baculovirus containing full length human ACC1 cDNA, were suspended in ice-cold lysis buffer (25 mM Tris, pH 7.5; 150 mM NaCl; 10% glycerol; 5 mM imidazole (EMD Bioscience; Gibbstown, N.J.); 2 mM TCEP (BioVectra; Charlottetown, Canada); Benzonase nuclease (10000 U/100 g cell paste; Novagen; Madison, Wis.); EDTA-free protease inhibitor cocktail (1 tab/50 mL; Roche Diagnostics; Mannheim, Germany). Cells were lysed by 3 cycles of freeze-thaw and centrifuged at 40,000×g for 40 minutes (4° C.). Supernatant was directly loaded onto a HisTrap FF crude column (GE Healthcare; Piscataway, N.J.) and eluted with an imidazole gradient up to 0.5 M over 20 column volumes (CV). ACC1-containing fractions were pooled and diluted 1:5 with 25 mM Tris, pH 7.5, 2 mM TCEP, 10% glycerol and direct loaded onto a CaptoQ (GE Healthcare) column and eluted with an NaCl gradient up to 1 M over 20 CV's. Phosphate groups were removed from purified ACC1 by incubation with lambda phosphatase (100 U/10 μM target protein; New England Biolabs; Beverly, Mass.) for 14 hours at 4° C.; okadaic acid was added (1 μM final concentration; Roche Diagnostics) to inhibit the phosphatase. Purified ACC1 was exchanged into 25 mM Tris, pH 7.5, 2 mM TCEP, 10% glycerol, 0.5 M NaCl by 6 hour dialysis at 4° C. Aliquots were prepared and frozen at −80° C.
[2] Measurement of rhACC1 inhibition. hACC1 was assayed in a Costar #3676 (Costar, Cambridge, Mass.) 384-well plate using the Transcreener ADP detection FP assay kit (Bellbrook Labs, Madison, Wis.) using the manufacturer's recommended conditions for a 50 μM ATP reaction. The final conditions for the assay were 50 mM HEPES, pH 7.2, 10 mM MgCl2, 7.5 mM tripotassium citrate, 2 mM DTT, 0.1 mg/mL BSA, 30 μM acetyl-CoA, 50 μM ATP, and 10 mM KHCO3 Typically, a 10 μl reaction was run for 120 min at 25° C., and 10 μl of Transcreener stop and detect buffer was added and the combination incubated at room temp for an additional 1 hour. The data was acquired on a Envision Fluorescence reader (PerkinElmer) using a 620 excitation Cy5 FP general dual mirror, 620 excitation Cy5 FP filter, 688 emission (S) and a 688 (P) emission filter.

recombinant human ACC2 (rhACC2), sequence (O00763 whole entry V2141I): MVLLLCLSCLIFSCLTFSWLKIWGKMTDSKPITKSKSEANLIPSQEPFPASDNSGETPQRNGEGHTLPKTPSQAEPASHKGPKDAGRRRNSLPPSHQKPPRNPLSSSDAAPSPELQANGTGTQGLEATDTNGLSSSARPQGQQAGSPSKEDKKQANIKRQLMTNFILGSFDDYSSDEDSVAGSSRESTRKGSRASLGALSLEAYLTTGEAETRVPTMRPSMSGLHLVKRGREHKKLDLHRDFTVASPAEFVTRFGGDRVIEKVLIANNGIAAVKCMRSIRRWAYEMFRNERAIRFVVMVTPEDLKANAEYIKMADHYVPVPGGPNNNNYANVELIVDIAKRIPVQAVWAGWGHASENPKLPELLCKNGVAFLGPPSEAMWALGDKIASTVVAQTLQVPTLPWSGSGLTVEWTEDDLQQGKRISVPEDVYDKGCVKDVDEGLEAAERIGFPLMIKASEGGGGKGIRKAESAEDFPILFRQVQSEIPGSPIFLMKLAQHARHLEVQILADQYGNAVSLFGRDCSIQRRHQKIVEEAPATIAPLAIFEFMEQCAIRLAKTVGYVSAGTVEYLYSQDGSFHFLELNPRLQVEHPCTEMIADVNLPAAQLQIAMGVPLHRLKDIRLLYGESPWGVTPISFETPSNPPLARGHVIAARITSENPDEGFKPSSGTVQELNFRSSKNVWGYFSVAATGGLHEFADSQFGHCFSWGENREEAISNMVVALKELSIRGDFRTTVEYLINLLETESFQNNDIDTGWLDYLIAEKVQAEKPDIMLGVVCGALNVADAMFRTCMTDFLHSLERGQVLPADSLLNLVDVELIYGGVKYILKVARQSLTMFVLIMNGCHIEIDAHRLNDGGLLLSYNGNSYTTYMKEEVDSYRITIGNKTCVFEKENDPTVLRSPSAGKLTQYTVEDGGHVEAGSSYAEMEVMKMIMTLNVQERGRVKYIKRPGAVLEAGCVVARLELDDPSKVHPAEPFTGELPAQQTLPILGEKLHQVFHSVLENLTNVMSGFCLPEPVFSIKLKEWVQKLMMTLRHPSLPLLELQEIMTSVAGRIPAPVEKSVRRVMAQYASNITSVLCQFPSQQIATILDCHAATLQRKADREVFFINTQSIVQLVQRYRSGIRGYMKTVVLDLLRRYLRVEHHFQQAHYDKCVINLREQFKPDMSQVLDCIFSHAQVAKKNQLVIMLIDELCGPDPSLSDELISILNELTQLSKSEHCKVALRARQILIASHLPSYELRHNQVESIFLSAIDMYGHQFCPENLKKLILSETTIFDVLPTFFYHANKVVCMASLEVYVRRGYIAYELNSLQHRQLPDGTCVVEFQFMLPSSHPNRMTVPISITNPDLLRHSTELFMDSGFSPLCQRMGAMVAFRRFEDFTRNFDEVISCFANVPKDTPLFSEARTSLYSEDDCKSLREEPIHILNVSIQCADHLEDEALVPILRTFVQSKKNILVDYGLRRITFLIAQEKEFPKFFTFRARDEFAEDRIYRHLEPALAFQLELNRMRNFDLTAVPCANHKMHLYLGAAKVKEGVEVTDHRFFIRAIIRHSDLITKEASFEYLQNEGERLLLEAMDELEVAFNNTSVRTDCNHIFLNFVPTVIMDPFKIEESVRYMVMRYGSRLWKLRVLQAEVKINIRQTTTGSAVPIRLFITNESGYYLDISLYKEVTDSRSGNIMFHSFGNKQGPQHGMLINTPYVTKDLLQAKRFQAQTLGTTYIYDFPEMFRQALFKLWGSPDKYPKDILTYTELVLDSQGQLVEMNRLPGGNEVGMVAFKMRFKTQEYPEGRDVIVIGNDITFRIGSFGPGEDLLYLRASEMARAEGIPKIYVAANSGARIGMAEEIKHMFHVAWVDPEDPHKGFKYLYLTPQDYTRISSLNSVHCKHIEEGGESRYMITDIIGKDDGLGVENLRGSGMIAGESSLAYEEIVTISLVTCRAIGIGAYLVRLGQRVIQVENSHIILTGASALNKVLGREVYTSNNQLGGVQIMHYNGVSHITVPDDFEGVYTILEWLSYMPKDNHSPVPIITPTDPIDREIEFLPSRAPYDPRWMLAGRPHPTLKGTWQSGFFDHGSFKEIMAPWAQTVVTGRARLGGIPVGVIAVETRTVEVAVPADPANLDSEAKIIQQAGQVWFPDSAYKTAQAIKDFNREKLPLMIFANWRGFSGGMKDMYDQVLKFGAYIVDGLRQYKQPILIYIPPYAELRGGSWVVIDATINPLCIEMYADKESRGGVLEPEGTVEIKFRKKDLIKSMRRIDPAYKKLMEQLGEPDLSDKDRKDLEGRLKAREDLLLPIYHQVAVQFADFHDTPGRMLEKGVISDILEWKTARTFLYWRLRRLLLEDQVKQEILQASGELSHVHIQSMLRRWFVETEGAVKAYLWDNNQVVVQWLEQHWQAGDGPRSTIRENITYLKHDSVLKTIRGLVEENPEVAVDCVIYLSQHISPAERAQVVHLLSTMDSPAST

CC(C)(C)n1cc2c(n1)C(=O)NC1(CCN(C(=O)c3ccc4c(N)nccc4c3)CC1)C2 [Example 101, 1-(1-aminoisoquinoline-6-carbonyl)-2′-tert-butyl-4′,6′-dihydrospiro[piperidine-4,5′-pyrazolo[3,4-c]pyridin]-7′(2′H)-one]
IC50 [1]: 26 nM | IC50 [2]: 160 nM

CN(C)c1nccc2ccc(C(=O)N3CCC4(CC3)Cc3cn(C(C)(C)C)nc3C(=O)N4)cc12 [Example 103, 2′-tert-butyl-1-(1-(dimethylamino)isoquinoline-7-carbonyl)-4′,6′-dihydrospiro[piperidine-4,5′-pyrazolo[3,4-c]pyridin]-7′(2′H)-one]
IC50 [1]: 8.9 nM | IC50 [2]: 73 nM

CC(C)(C)n1cc2c(n1)C(=O)NC1(CCN(C(=O)c3ccc4ccc(Cl)nc4c3)CC1)C2 [Example 104, 2′-tert-butyl-1-(2-chloroquinoline-7-carbonyl)-4′,6′-dihydrospiro[piperidine-4,5′-pyrazolo[3,4-c]pyridin]-7′(2′H)-one]
IC50 [1]: 16 nM | IC50 [2]: 89 nM

CC(C)(C)n1cc2c(n1)C(=O)NC1(CCN(C(=O)c3ccc4ccc(NC5CC5)nc4c3)CC1)C2 [Example 106]
IC50 [1]: 2.6 nM | IC50 [2]: 7.5 nM

CC(C)Nc1ccc2ccc(C(=O)N3CCC4(CC3)Cc3cn(C(C)(C)C)nc3C(=O)N4)cc2n1 [Example 107]
IC50 [1]: 2.2 nM | IC50 [2]: 6.1 nM

CCN(C)c1ccc2ccc(C(=O)N3CCC4(CC3)Cc3cn(C(C)(C)C)nc3C(=O)N4)cc2n1 [Example 108]
IC50 [1]: 2.4 nM | IC50 [2]: 15 nM

CC(C)(C)n1cc2c(n1)C(=O)NC1(CCN(C(=O)c3ccc4ccc(NC5CCC5)nc4c3)CC1)C2 [Example 109]
IC50 [1]: 1 nM | IC50 [2]: 3.4 nM

COCCNc1ccc2ccc(C(=O)N3CCC4(CC3)Cc3cn(C(C)(C)C)nc3C(=O)N4)cc2n1 [Example 111]
IC50 [1]: 3.3 nM | IC50 [2]: 27 nM

CCNc1ccc2ccc(C(=O)N3CCC4(CC3)Cc3cn(C(C)(C)C)nc3C(=O)N4)cc2n1 [Example 112]
IC50 [1]: 1.8 nM | IC50 [2]: 8.9 nM

CC(C)(C)n1cc2c(n1)C(=O)NC1(CCN(C(=O)c3ccc4ccc(NC5COC5)nc4c3)CC1)C2 [Example 113]
IC50 [1]: 44 nM | IC50 [2]: 507 nM

Cc1n[nH]c2c(C)cc(C(=O)N3C4CCC3CC3(Cc5cn(C(C)(C)C)nc5C(=O)N3)C4)cc12 (centres unmarked) [Example 114]
IC50 [1]: 612 nM | IC50 [2]: 4820 nM

CC(C)(C)n1cc2c(n1)C(=O)NC1(CCN(C(=O)c3ccc4ccnc(NC5CC5)c4c3)CC1)C2 [Example 115]
IC50 [1]: 2.9 nM | IC50 [2]: 29 nM

CC(C)Nc1nccc2ccc(C(=O)N3CCC4(CC3)Cc3cn(C(C)(C)C)nc3C(=O)N4)cc12 [Example 116]
IC50 [1]: 4.7 nM | IC50 [2]: 20 nM

CCN(C)c1nccc2ccc(C(=O)N3CCC4(CC3)Cc3cn(C(C)(C)C)nc3C(=O)N4)cc12 [Example 117]
IC50 [1]: 54 nM | IC50 [2]: 332 nM

CC(C)(C)n1cc2c(n1)C(=O)NC1(CCN(C(=O)c3ccc4ccnc(NC5CCC5)c4c3)CC1)C2 [Example 118]
IC50 [1]: 2.7 nM | IC50 [2]: 17 nM

CCCNc1nccc2ccc(C(=O)N3CCC4(CC3)Cc3cn(C(C)(C)C)nc3C(=O)N4)cc12 [Example 119]
IC50 [1]: 2.5 nM | IC50 [2]: 24 nM

COCCNc1nccc2ccc(C(=O)N3CCC4(CC3)Cc3cn(C(C)(C)C)nc3C(=O)N4)cc12 [Example 120]
IC50 [1]: 6.1 nM | IC50 [2]: 47 nM

CCNc1nccc2ccc(C(=O)N3CCC4(CC3)Cc3cn(C(C)(C)C)nc3C(=O)N4)cc12 [Example 121]
IC50 [1]: 2.7 nM | IC50 [2]: 17 nM

CC(C)(C)n1cc2c(n1)C(=O)NC1(CCN(C(=O)c3ccc4ccnc(NC5COC5)c4c3)CC1)C2 [Example 122]
IC50 [1]: 77 nM | IC50 [2]: 494 nM

CC(C)(C)Nc1nccc2ccc(C(=O)N3CCC4(CC3)Cc3cn(C(C)(C)C)nc3C(=O)N4)cc12 [Example 123, 2′-(tert-butyl)-1-(1-(tert-butylamino)isoquinoline-7-carbonyl)-4′,6′-dihydrospiro[piperidine-4,5′-pyrazolo[3,4-c]pyridin]-7′(2′H)-one]
IC50 [1]: 6.3 nM | IC50 [2]: 78 nM

CC(C)(C)n1cc2c(n1)C(=O)NC1(CCN(C(=O)c3ccc4ccc(NCC(F)(F)F)nc4c3)CC1)C2 [Example 124]
IC50 [1]: 1.72 nM | IC50 [2]: 6.5 nM

CC(F)(F)CNc1ccc2ccc(C(=O)N3CCC4(CC3)Cc3cn(C(C)(C)C)nc3C(=O)N4)cc2n1 [Example 125]
IC50 [1]: 1.7 nM | IC50 [2]: 9 nM
